Experimental data as given in patent EP2036888A1, “Naphthyl-substituted sulfonamides” (Laboratorios del Dr. Esteve S.A., priority 2007, dated 2009).

Target: 5HT6 human recombinant receptor (Homo sapiens, UniProt P50406)
Assay: Binding with serotonin receptor 5HT6 ([3H]-LSD radioligand displacement, HEK-293 cell membranes)
Settings: for inhibition at 0.01 µM: read-out: Binding % Inhibition 10 nM; for inhibition at 0.1 µM: read-out: Binding % Inhibition 100 nM

Chain of 5HT6 human recombinant receptor (P50406 whole entry): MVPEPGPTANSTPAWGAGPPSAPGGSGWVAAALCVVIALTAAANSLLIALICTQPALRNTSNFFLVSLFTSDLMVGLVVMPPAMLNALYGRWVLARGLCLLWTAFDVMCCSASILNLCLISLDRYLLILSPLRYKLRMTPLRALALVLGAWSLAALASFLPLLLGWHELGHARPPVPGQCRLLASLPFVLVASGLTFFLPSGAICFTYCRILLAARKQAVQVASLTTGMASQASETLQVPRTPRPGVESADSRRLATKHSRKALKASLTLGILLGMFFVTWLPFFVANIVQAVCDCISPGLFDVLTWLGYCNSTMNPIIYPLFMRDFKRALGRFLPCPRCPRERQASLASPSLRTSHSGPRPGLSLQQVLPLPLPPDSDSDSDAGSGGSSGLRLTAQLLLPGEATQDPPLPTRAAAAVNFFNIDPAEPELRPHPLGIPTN

With `CN(C)CCc1c[nH]c2ccc(NS(=O)(=O)c3ccc4cc(Cl)ccc4c3)cc12` [Example 1, 6-chloro-N-(3-(2-(dimethylamino)ethyl)-1H-indol-5-yl)naphthalene-2-sulfonamide] the inhibition at 0.01 µM was 73.9% and the inhibition at 0.1 µM was 84.4%.

`CN(C)CCc1c[nH]c2ccc(NS(=O)(=O)c3cccc4c(N(C)C)cccc34)cc12` [Example 2] was tested, and the Ki was 5.3 nM, the inhibition at 0.01 µM was 75.1% and the inhibition at 0.1 µM was 86.3%.

Work on `Cc1ccc(S(=O)(=O)Nc2ccc3[nH]cc(CCN(C)C)c3c2)c2ccccc12` [Example 3, N-(3-(2-(dimethylamino)ethyl)-1H-indol-5-yl)-4-methylnanhthalene-1-sulfonamide] yielded a Ki of 9.8 nM, an inhibition at 0.01 µM of 80.3% and an inhibition at 0.1 µM of 88.5%.

For `CN(C)CCc1c[nH]c2ccc(NS(=O)(=O)c3ccc4ccc(Cl)cc4c3)cc12` [Example 4, 7-chloro-N-(3-(2-(dimethylamino)ethyl)-1H-indol-5-yl)naphthalene-2-sulfonamide], the Ki was 3.9 ± 0.4 nM, the inhibition at 0.01 µM was 81.2% and the inhibition at 0.1 µM was 89.3%.

In the case of `CN(C)CCc1c[nH]c2ccc(NS(=O)(=O)c3ccc4cc(N(C)C)ccc4c3)cc12` [Example 5, 6-(dimethylamino)-N-(3-(2-(dimethylamino)ethyl)-1H-indol-5-yl)naphthalene-2-sulfonamide], the Ki is reported as 11.9 ± 3.3 nM, the inhibition at 0.01 µM is reported as 69.8% and the inhibition at 0.1 µM is reported as 88.5%.

`CN(C)CCc1c[nH]c2ccc(NS(=O)(=O)c3cccc4cccc(Cl)c34)cc12` [Example 6, 8-chloro-N-(3-(2-(dimethylamino)ethyl)-1H-indol-5-yl)naphthalene-1-sulfonamide] gave a Ki of 2.1 nM, an inhibition at 0.01 µM of 68.4% and an inhibition at 0.1 µM of 88.4%.

For `CN(C)CCc1c[nH]c2ccc(NS(=O)(=O)c3ccc(F)c4ccccc34)cc12` [Example 7, N-(3-(2-(dimethylamino)ethyl)-1H-indol-5-yl)-4-fluoronaphthalene-1-sulfonamide], the Ki was 5.2 nM, the inhibition at 0.01 µM was 81.5% and the inhibition at 0.1 µM was 95.4%.

In the case of `CN(C)CCc1cn(C)c2ccc(NS(=O)(=O)c3ccc4c(Cl)cccc4c3)cc12` [Example 8, 5-chloro-N-(3-(2-(dimethylamino)ethyl)-1-methyl-1H-indol-5-yl)naphthalene-2-sulfonamide], the Ki is reported as 13.4 ± 0.9 nM, the inhibition at 0.01 µM is reported as 64.5% and the inhibition at 0.1 µM is reported as 93.4%.

`Cn1cc(CCN2CCCC2)c2cc(NS(=O)(=O)c3cccc4ccccc34)ccc21` [Example 9, N-(1-methyl-3-(2-(pyrrolidin-1-yl)ethyl)-1H-indol-5-yl)naphthalene-1-sulfonamide] was tested, and the Ki was 42.5 ± 13.9 nM, the inhibition at 0.01 µM was 58.1% and the inhibition at 0.1 µM was 86.8%.

Work on `CN(C)CCc1c[nH]c2ccc(N(C)S(=O)(=O)c3cccc4ccccc34)cc12` [Example 10, N-(3-(2-(dimethylamino)ethyl)-1H-indol-5-yl)-N-methylnaphthalene-1-sulfonamide] yielded a Ki of 9.7 ± 4.5 nM, an inhibition at 0.01 µM of 79.2% and an inhibition at 0.1 µM of 92.7%.

In the case of `CN(C)CCc1c[nH]c2ccc(N(C)S(=O)(=O)c3ccc4ccccc4c3)cc12` [Example 11, N-(3-(2-(dimethylamino)ethyl)-1H-indol-5-yl)-N-methylnaphthalene-2-sulfonamide], the Ki is reported as 12.3 ± 3.7 nM, the inhibition at 0.01 µM is reported as 73.1% and the inhibition at 0.1 µM is reported as 93.1%.

With `CN(C)CCc1c[nH]c2ccc(N(C)S(=O)(=O)c3cccc4c(Cl)cccc34)cc12` [Example 12, 5-chloro-N-(3-(2-(dimethylamino)ethyl)-1H-indol-5-yl)-N-methylnaphthalene-1-sulfonamide] the Ki was 48.7 ± 6.9 nM, the inhibition at 0.01 µM was 51.6% and the inhibition at 0.1 µM was 85.4%.

`CN(C)CCc1c[nH]c2ccc(N(C)S(=O)(=O)c3ccc4c(Cl)cccc4c3)cc12` [Example 13, 5-chloro-N-(3-(2-(dimethylamino)ethyl)-1H-indol-5-yl)-N-methylnaphthalene-2-sulfonamide] showed a Ki of 18.1 ± 2.6 nM, an inhibition at 0.01 µM of 55.5% and an inhibition at 0.1 µM of 87.6%.

With `COc1cccc2c(S(=O)(=O)Nc3ccc4[nH]cc(CCN(C)C)c4c3)cccc12` [Example 14, N-(3-(2-(dimethylamino)ethyl)-1H-indol-5-yl)-5-methoxynanhthalene-1-sulfonamide] the Ki was 18.6 nM, the inhibition at 0.01 µM was 59.6% and the inhibition at 0.1 µM was 88.1%.

In the case of `CN(C)CCc1c[nH]c2ccc(NS(=O)(=O)c3cccc4c(O)cccc34)cc12` [Example 15, N-(3-(2-(dimethylamino)ethyl)-1H-indol-5-yl)-5-hydroxynaphthalene-1-sulfonamide], the Ki is reported as 0.5 nM, the inhibition at 0.01 µM is reported as 91.9% and the inhibition at 0.1 µM is reported as 94.6%.

Work on `COc1ccc2ccc(S(=O)(=O)Nc3ccc4[nH]cc(CCN(C)C)c4c3)cc2c1` [Example 16, N-(3-(2-(dimethylamino)ethyl)-1H-indol-5-yl)-7-methoxynaphthalene-2-sulfonamide] yielded a Ki of 5 ± 1.3 nM, an inhibition at 0.01 µM of 70% and an inhibition at 0.1 µM of 89.3%.

For `CN(C)CCc1c[nH]c2ccc(NS(=O)(=O)c3ccc4ccc(O)cc4c3)cc12` [Example 17, N-(3-(2-(dimethylamino)ethyl)-1 H-indol-5-yl)-7-hydroxynaphthalene-2-sulfonamide], the Ki was 6.9 ± 0.2 nM, the inhibition at 0.01 µM was 69.9% and the inhibition at 0.1 µM was 91.5%.

`COc1cccc2cccc(S(=O)(=O)Nc3ccc4[nH]cc(CCN(C)C)c4c3)c12` [Example 18, N-(3-(2-(dimethylamino)ethyl)-1H-indol-5-yl)-8-methoxynaphthalene-1-sulfonamide] was tested, and the Ki was 8.3 nM, the inhibition at 0.01 µM was 69.2% and the inhibition at 0.1 µM was 88.4%.

`CN(C)CCc1c[nH]c2ccc(NS(=O)(=O)c3cccc4cccc(O)c34)cc12` [Example 19, N-(3-(2-(dimethylamino)ethyl)-1H-indol-5-yl)-8-hydroxynaphthalene-1-sulfonamide] showed a Ki of 24.6 ± 2.1 nM, an inhibition at 0.01 µM of 53.8% and an inhibition at 0.1 µM of 85.9%.

In the case of `COc1ccc(S(=O)(=O)Nc2ccc3[nH]cc(CCN(C)C)c3c2)c2ccccc12` [Example 20, N-(3-(2-(dimethylamino)ethyl)-1H-indol-5-yl)-4-methoxynaphthalene-1-sulfonamide], the Ki is reported as 8.5 ± 1.7 nM, the inhibition at 0.01 µM is reported as 53.3% and the inhibition at 0.1 µM is reported as 81.8%.
